Laboratory results from the NIST ThermoML archive (doi:10.1021/je049556i).

Test: xn = mol fraction of the nth substance listed
Conditions: 101 kPa, Liquid

CC1OC(C)OC(C)O1 (stereo not given) [2,4,6-trimethyl-1,3,5-trioxane] + CCO
Conditions | mass density, 298.15 K [kg/m3] | mass density, 303.15 K [kg/m3] | mass density, 308.15 K [kg/m3] | viscosity, 298.15 K [mPa·s] | viscosity, 303.15 K [mPa·s] | viscosity, 308.15 K [mPa·s]
x1 = 0.0372 | 802.48 | 798.21 | 793.84 | 1.071 | 0.979 | 0.886
x1 = 0.0801 | 820.65 | 816.3 | 811.97 | 1.059 | 0.966 | 0.876
x1 = 0.1299 | 839.52 | 835.19 | 830.81 | 1.045 | 0.952 | 0.866
x1 = 0.1885 | 859.12 | 854.68 | 850.28 | 1.031 | 0.938 | 0.855
x1 = 0.2589 | 879.57 | 875.01 | 870.45 | 1.016 | 0.924 | 0.844
x1 = 0.3433 | 900.45 | 895.77 | 890.94 | 1.003 | 0.912 | 0.835
x1 = 0.4485 | 922.04 | 917.27 | 912.16 | 0.994 | 0.903 | 0.828
x1 = 0.5823 | 944.05 | 939.04 | 933.74 | 0.995 | 0.904 | 0.829
x1 = 0.6816 | 957.34 | 952.18 | 946.76 | 1.006 | 0.915 | 0.837
x1 = 0.7582 | 966.15 | 960.83 | 955.25 | 1.022 | 0.929 | 0.849
x1 = 0.8003 | 970.54 | 965.15 | 959.44 | 1.033 | 0.939 | 0.857
x1 = 0.8452 | 974.98 | 969.45 | 963.6 | 1.048 | 0.951 | 0.868
x1 = 0.8932 | 979.38 | 973.8 | 967.86 | 1.065 | 0.967 | 0.881
x1 = 0.9446 | 983.9 | 978.26 | 972.13 | 1.088 | 0.986 | 0.897
x1 = 1 | 988.35 | 982.64 | 976.44 | 1.107 | 1.001 | 0.907
